Experiments:
KU812 = assay: CCK8 antiproliferative assay, KU812; type: cell-based; settings: Homo sapiens, CCK8, 48 h, mean ± SD, n = 3
Method: (§1) For all biological assays, all of the synthesized compounds were dissolved in DMSO. The cytotoxicity of all of the target compounds against the HCT116, K562, KU812, and HT-29 cells was determined by an CCK8 assay in vitro using adriamycin and echinatin as the controls. About 3000 cells per well were seeded in a 96-well plate and incubated for 24 h. Then, the cells were stimulated with different concentrations of test compounds for 48 h. The CCK8 solution (100 µL 0.5 mg/mL^−1) was added to each well, and the cells were incubated for another 4 h. Then, the absorbance of the samples was measured at 450 nm. The IC50 values were calculated according to the Logit method after obtaining the inhibitory rate. All experiments were repeated three times.

HCT116 = assay: CCK8 antiproliferative assay, HCT116; type: cell-based; settings: Homo sapiens, HCT-116; CCK8, 48 h, mean ± SD, n = 3
Method: as §1

K562 = assay: CCK8 antiproliferative assay, K562; type: cell-based; settings: Homo sapiens, CCK8, 48 h, mean ± SD, n = 3
Method: as §1

HT-29 = assay: CCK8 antiproliferative assay, HT-29; type: cell-based; settings: Homo sapiens, CCK8, 48 h, mean ± SD, n = 3
Method: as §1

Row | Compound | IC50 (KU812) [µM] | melting point [°C] | IC50 (HCT116) [µM] | IC50 (K562) [µM] | IC50 (HT-29) [µM]
1 | COc1cc(O)ccc1/C=C/C(=O)c1ccc(OCc2nnc(Nc3ccc(F)cc3F)o2)cc1 [Compound T16, (E)-1-{4-{{5-[(2,4-Difluorophenyl)amino]-1,3,4-oxadiazol-2-yl}methoxy}phenyl}-3-(4-hydroxy-2-methoxy-phenyl)propenone] | > 30 | 223.4 to 223.9 | > 30 | > 30 | > 30
2 | COc1cc(O)ccc1/C=C/C(=O)c1ccc(OCc2nnc(Nc3ccc(C)cc3)o2)cc1 [Compound T1, (E)-3-(4-Hydroxy-2-methoxyphenyl)-1-{4-{[5-(p-tolylamino)-1,3,4-oxadiazol-2-yl]methoxy}phenyl}propen-one] | 9.55 ± 0.17 | 186.1 to 189.4 | 4.85 ± 0.32 | 22.05 ± 0.12 | 7.1 ± 0.45
3 | COc1cc(O)ccc1/C=C/C(=O)c1ccc(OCc2nnc(Nc3ccccc3Cl)o2)cc1 [Compound T13, (E)-1-{4-{{5-[(2-Chlorophenyl)amino]-1,3,4-oxadiazol-2-yl}methoxy}phenyl}-3-(4-hydroxy-2-methoxyphen-yl)propenone] | > 30 | 191.3 to 191.8 | 10.2 ± 0.87 | > 30 | 13.9 ± 0.67
4 | COc1cc(O)ccc1/C=C/C(=O)c1ccc(OCc2nnc(Nc3ccccc3F)o2)cc1 [Compound T12, (E)-1-{4-{{5-[(2-Fluorophenyl)amino]-1,3,4-oxadiazol-2-yl}methoxy}phenyl}-3-(4-hydroxy-2-methoxyphen-yl)propenone] | > 30 | 186.2 to 187.4 | 6.14 ± 1.45 | > 30 | 12.8 ± 0.98
5 | COc1cccc2c1C(=O)c1c(O)c3c(c(O)c1C2=O)C[C@@](O)(C(=O)CO)C[C@@H]3O[C@H]1C[C@H](N)[C@H](O)[C@H](C)O1 [Adriamycin, reference compound] | 4.14 ± 0.53 | – | 1.5 ± 0.19 | 4.22 ± 0.44 | 2.7 ± 0.71
6 | COc1cc(O)ccc1/C=C/C(=O)c1ccc(OCc2nnc(Nc3ccc(OC(F)(F)F)cc3)o2)cc1 [Compound T5] | 12.45 ± 0.02 | 227.6 to 228.4 | 3.94 ± 0.33 | > 30 | 3.64 ± 0.21
7 | COc1cc(O)ccc1/C=C/C(=O)c1ccc(OCc2nnc(Nc3ccccc3C)o2)cc1 [Compound T9] | > 30 | 206.5 to 209.2 | 10 ± 0.93 | > 30 | > 30
8 | COc1cc(O)ccc1/C=C/C(=O)c1ccc(OCc2nnc(Nc3cccc(C)c3)o2)cc1 [Compound T10, (E)-3-(4-Hydroxy-2-methoxyphenyl)-1-{4-{[5-(m-tolylamino)-1,3,4-oxadiazol-2-yl]methoxy}phenyl}propen-one] | > 30 | 187.6 to 190.8 | 7.62 ± 1.23 | > 30 | > 30
9 | COc1cc(O)ccc1/C=C/C(=O)c1ccc(OCc2nnc(Nc3c(Cl)cccc3Cl)o2)cc1 [Compound T18, (E)-1-{4-{{5-[(2,6-Dichlorophenyl)amino]-1,3,4-oxadiazol-2-yl}methoxy}phenyl}-3-(4-hydroxy-2-methoxy-phenyl)propenone] | > 30 | 172.3 to 174.6 | > 30 | > 30 | > 30
10 | COc1cc(O)ccc1/C=C/C(=O)c1ccc(O)cc1 [Echinatin] | 13.8 ± 0.33 | – | 4.54 ± 0.76 | > 30 | 10.4 ± 0.87
11 | COc1cc(O)ccc1/C=C/C(=O)c1ccc(OCc2nnc(Nc3cccc(Cl)c3)o2)cc1 [Compound T14, (E)-1-{4-{{5-[(3-Chlorophenyl)amino]-1,3,4-oxadiazol-2-yl}methoxy}phenyl}-3-(4-hydroxy-2-methoxyphen-yl)propenone] | > 30 | 225 to 225.9 | 9.83 ± 1.98 | > 30 | 13.2 ± 0.53

Reference: paper PMC10889159, “Synthesis and Antitumor Activity Evaluation of Novel Echinatin Derivatives with a 1,3,4-Oxadiazole Moiety” (International Journal of Molecular Sciences, 2024)
